Laboratory results published in patent EP1348696B1, “Use of optically active clausenamides for the preparation of pharmaceutical compositions, pharmaceutical compositions containing the same” (INSTITUTE OF MATERIA MEDICA, CHINESE ACADEMY OF MEDICAL …, priority 2002, dated 2003).

Test system: β-AP (25-35)-treated rats
Experiment: Morris water maze, memory impairment induced by aggregated Aβ 25-35
Type: in vivo
Conditions: A β 25-35 alone
Description: Pathological features of Alzheimer's disease (AD) include extensive neuronal loss and the presence of numerous neurofibrillary tangles and senile plaques in the brain. The senile plaques contain amyloid fibrils derived from a 39-43 amino acids peptide referred to as β-amyloid or Aβ which can produce neurotoxicity. Aβ 25-35 poccesses the similar neurotoxicity and ability of self-aggregation as Aβ 1-42. Administrated aggregated Aβ 25-35 into rat's lateral cerebral ventricle induced memory impairment in Morris water maze. […] The latency for finding the platform beginning from 3th to 5th day in (-)clausenamide 8mg • kg^-1 and 40mg • kg^-1 groups was shorter than that of A β group. […] With increasing of training days, the initial heading angle became small. On the 3th day, the initial heading angle of A β group was larger than control. […] (see Tab.3)
There are four strategies for finding platform in Morris water maze: random, circle, taxis and line. In the beginning of training the search strategies for finding target is mainly circle and random, with the increasing of training, the percentage of the two strategies declined gradually, Beginning from the 3th day, declining speed in control and (-) clausenamide group was faster than A β ,(+) clausenamide and piracetam groups. Meanwhile, the appearance of taxis and line strategies in (-) clausenamide group increased markedly. Table 3a Effects of (-),(+) Clausenamide on the number of error of β-AP (25-35)-treated rats inone trial passive avoidance. Value is represented as MEAN±S.E.M.

**Q.** Which “initial heading angle, Training days 1” value does the source give for “A β 25-35: β-amyloid fragment with neurotoxicity and self-aggregation similar to Aβ 1-42; icv induces memory impairment (GSNKGAIIGLM; Amyloid-beta protein 42; UniProt P05067 696-706, looked up, fragment)” here?
**A.** 106.3±29.8

**Q.** And the “initial heading angle, Training days 2” value?
**A.** 98.7±30.4

**Q.** What about the “initial heading angle, Training days 3” value of the same sequence?
**A.** 73.6±20.3

**Q.** And the “initial heading angle, Training days 4” value?
**A.** 60.6±23.8

**Q.** And the “initial heading angle, Training days 5” value?
**A.** 46.7±19.4
